The target in data set [1] is T1, recombinant human acetylcholinesterase mutant ser/r-met-AChE (serine instead of cysteine at position 611, additional N-terminal methionine; SEQ ID NO:1 numbering) (Homo sapiens, UniProt P22303, C611S).
T1 construct: made in house; host or cells: E. coli S.phi.930 harboring pMLF-52ser
As to the kind of experiment: Inhibitor specificity: enzyme reacted five minutes with inhibitor, then acetylthiocholine added (Ellman assay). It counts as biochemical. The settings on record: substrate acetylthiocholine, non-purified enzyme. Here is the method:
(§1) AChE activity was assayed by the spectrophotometric method of Ellman using acetylthiocholine as substrate (Ellman, G.L. et al. ([…]) Biochem. Pharm. 7: 88-95)). Acetylthiocholine hydrolysis generates free thiocholine which reacts with Ellman reagent (DTNB) to produce a yellow chromophore. The concentration of the yellow chromophore is determined by the absorption at 412 nm and is proportional to the amount of AChE present. One enzyme unit (U) is the amount of enzyme which hydrolyses 1 μmole of substrate per minute. The extinction coefficient of 1 M chromophore is […]. Specific activity is expressed as U/mg protein.
(§2) The authenticity of the activity of the refolded r-met-AChE and ser/r-met-AChE was verified by testing the refolded protein with two different substrates and a specific inhibitor. Acetylthiocholine (the specific substrate), and butyrylthiocholine (the BuChE substrate), and a specific inhibitor BW-284C51 (see Background of the Invention) were tested to see whether the recombinant enzyme retained the specific characteristics of the naturally-occurring enzyme. The enzyme was assayed with each of the two substrates, or first reacted for five minutes with the specific inhibitor BW-284651 and then the specific substrate was added to the reaction mix. […] Since the butyrylthiocholine was present at a 20-fold higher concentration than acetylthiocholine it is seen that the enzymatic activity towards the butyrylthiocholine is 200-fold less than towards the specific substrate. No activity at all was detected towards the 0.05 mM butyrylthiocholine.
In general terms: In Ellman's method for cholinesterases, released thiocholine reacts with DTNB.

Data set [2] concerns the target T2, recombinant human acetylcholinesterase mutant ser/r-met-AChE (serine instead of cysteine at position 611, additional N-terminal methionine); SEQ ID NO:1 numberin (Homo sapiens, UniProt P22303, C611S).
T2 construct: made in house; host or cells: E. coli S.phi.930 harboring pMLF-52ser
The description is as above. It counts as biochemical. To be noted: increasing dosages from 0.8×10^-8 M to 0.8×10^-6 M; dose-dependent. The procedure:
as §1, §2

In another data set the test system is CC(=O)SCC[N+](C)(C)C. As to the kind of experiment: purified protein, by the assay type. To be noted: other: refolded enzyme; Lineweaver-Burk plot (FIG. 8); pH 8.0.

Consider two molecules from patent US5248604A, “Enzymatically active recombinant human acetylcholinesterase and hosts and vectors for expression thereof” (priority 1991, dated 1993).

By inhibition is commonly meant the relative decrease from the control value, in per cent. The Km is the substrate concentration at which the rate is half of its maximum.

T1 sequence (P22303 32-614 C611S): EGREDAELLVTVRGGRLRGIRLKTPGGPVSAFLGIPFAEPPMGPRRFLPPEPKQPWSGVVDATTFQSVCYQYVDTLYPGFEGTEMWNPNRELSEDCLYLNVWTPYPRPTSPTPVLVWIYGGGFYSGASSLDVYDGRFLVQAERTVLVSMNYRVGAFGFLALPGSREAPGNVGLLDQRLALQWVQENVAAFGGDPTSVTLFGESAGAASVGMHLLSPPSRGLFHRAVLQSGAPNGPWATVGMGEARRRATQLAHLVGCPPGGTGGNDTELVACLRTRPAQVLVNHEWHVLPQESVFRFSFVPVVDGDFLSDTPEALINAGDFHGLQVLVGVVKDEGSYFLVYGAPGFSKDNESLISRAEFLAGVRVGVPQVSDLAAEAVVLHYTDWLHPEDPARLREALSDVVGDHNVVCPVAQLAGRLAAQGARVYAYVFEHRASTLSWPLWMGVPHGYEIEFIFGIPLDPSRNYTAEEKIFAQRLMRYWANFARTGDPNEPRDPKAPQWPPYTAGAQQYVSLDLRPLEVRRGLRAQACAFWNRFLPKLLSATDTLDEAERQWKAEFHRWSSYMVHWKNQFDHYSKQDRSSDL
T2 sequence (P22303 32-614 C611S): as above
Description for CC(=O)SCC[N+](C)(C)C: Lineweaver-Burk Plot of ser/r-met-AChE Enzyme kinetics were determined for the mutant rAChE using acetylthiocholine as substrate.
AChE activity was assayed by the spectrophotometric method of Ellman using acetylthiocholine as substrate (Ellman, G.L. et al. (1981) Biochem. Pharm. 7: 88-95)). Acetylthiocholine hydrolysis generates free thiocholine which reacts with Ellman reagent (DTNB) to produce a yellow chromophore. The concentration of the yellow chromophore is determined by the absorption at 412 nm and is proportional to the amount of AChE present. One enzyme unit (U) is the amount of enzyme which hydrolyses 1 μmole of substrate per minute. The extinction coefficient of 1 M chromophore is 13.6×10^4. Specific activity is expressed as U/mg protein.

For `C=CC[N+](C)(C)c1ccc(CCC(=O)CCc2ccc([N+](C)(C)CC=C)cc2)cc1` [BW284C51], the inhibition at 0.8 µM in data set [1] (BW284C51 0.8 × 10^-6 M) came out at 100%. Besides, the inhibition at 0.08 µM in data set [1] (BW284C51 0.8 × 10^-7 M) turned out to be 87%. Moreover, in data set [1] (BW284C51 0.8 × 10^-8 M), the inhibition at 0.008 µM was determined as 55%. In addition, the inhibition in data set [2] is 57%-100%.

Take “recombinant human acetylcholinesterase mutant ser/r-met-AChE (serine instead of cysteine at position 611, additional N-terminal methionine; SEQ ID NO:1 numbering) (Homo sapiens; C611S)”: the Km with CC(=O)SCC[N+](C)(C)C was determined as 100 µM.
